Measurements as given in US20260224758A1, “ALPHA-SYNUCLEIN BINDERS AND METHODS OF USE” (Merck Sharp & Dohme LLC, priority 2023, published 2026).
Like-named read-outs stand apart in the source and are kept apart here.

Target: T1, triton-extracted alpha-synuclein from PD Tissue (Homo sapiens, UniProt P37840)
T1 construct: tissue Analytic Biological Services Inc; host or cells: human PD temporal cortex grey matter, Triton X-100 insoluble pellet
Experiment: Alpha-synuclein tissue homogenate binding assay (Assay 1), displacement of [^3H]-1000
Details: for Ki: read-out: α-synuclein Tissue Ki (Assay 1); for Selectivity ratio (Assay 2/Assay 1): Aβ Tissue Ki / α-synuclein Tissue Ki
Description: Frozen human brain tissues from PD patients were purchased from Analytic Biological Services Inc. The samples were post-mortem tissues from donors with clinical diagnosis of late stage of PD. Alpha-synuclein, tau and amyloid burden was determined through a combination of immunohistochemistry on frozen thin coronal sections, as well as alpha Lisa-based quantification of protein levels in a detergent insoluble protein fraction. A tissue sample of temporal cortex was identified from one donor as having moderate to high alpha-synuclein burden, low amyloid and minimal to no tau pathology. The detergent insoluble fraction of temporal cortex from this patient was used to support homogenate binding studies. Grey matter was dissected out of the temporal cortex tissue with a dissecting blade and minced with fine dissecting scissors. […] Homogenates were centrifuged at 100,000×g for 45 minutes. The pellet was resuspended in TBS-TX buffer, using a Polytron at highest setting for 30 seconds at 4° C. Homogenates were centrifuged at 100,000×g for 45 minutes and the pellet was resuspended in TBS-TX buffer. A BCA protein assay was performed on the final homogenate to determine the protein concentration. […] For displacement a-synuclein binding assay, compounds and control were solvated in dimethyl sulfoxide (DMSO) and transferred using focused acoustic energy by an Echo 655 liquid handling instrument (Beckman Coulter, Indianapolis, IN) into designated wells of uniquely bar coded 96-well v-bottom low binding polypropylene microplates (Thermo Scientific, 249946). Compound dose response curves were prepared in a 10-point, 3-fold fashion within columns 2-11 of the microplate from high to low compound concentrations. […] Liquid-handling steps for dispensing insoluble fractions of PD brain homogenates and radioligand were performed using a Bravo automated liquid handling platform equipped with a 96LT disposable tip head (Agilent Technologies, Santa Clara. CA). […] The incubation was terminated by rapid filtration through UniFilter-96 GF/C microplates (pre-treated for 30 minutes with 0.2% Polyethylenimine at 4° C.) by using a FilterMate Harvester (PerkinElmer). […] The bottom of each UniFilter-96 GF/C microplate was adhesively sealed (PerkinElmer 6005199) prior to the addition of 50 μL MicroScint-20 liquid scintillation cocktail (PerkinElmer 6013621) to each well. A clear adhesive seal (TopSeal-A PLUS, PerkinElmer 6050185) was then applied to the top of each microplate and counted 1 minute/well on MicroBeta^2 system (PerkinElmer.

[1] = insoluble fraction of PD brain homogenate, [^3H]-1000 3.0 nM, Kd 0.90 nM

Structure (SMILES) | Ki [1] | Selectivity ratio (Assay 2/Assay 1) | Ki
OC[C@H]1CN(c2ncc(/C=C/c3ccc(-n4ccnc4)nc3)cn2)CCN1c1ncccn1 [Example 1, (R,E)-(4-(5-(2-(6-(1H-imidazol-1-yl)pyridin-3-yl)vinyl)pyrimidin-2-yl)-1-(pyrimidin-2-yl)piperazin-2-yl)methanol] | 1.6 nM |  | 
FCCOC[C@H]1CN(c2ncc(/C=C/c3ccc(-n4ccnc4)nc3)cn2)CCN1c1ncccn1 [Example 3, (R,E)-5-(2-(6-(1H-imidazol-1-yl)pyridin-3-yl)vinyl)-2-(3-((2-fluoroethoxy)methyl)-4-(pyrimidin-2-yl)piperazin-1-yl)pyrimidine] | 0.5 nM | 8000 | 
COC[C@H]1CN(c2ncc(C#Cc3ccc(-n4ccnc4)nc3)cn2)CCN1c1cc(F)ncn1 [Example 12, (R)-5-((6-(1H-imidazol-1-yl)pyridin-3-yl)ethynyl)-2-(4-(6-fluoropyrimidin-4-yl)-3-(methoxymethyl)piperazin-1-yl)pyrimidine] |  | 3636 | 1.1 nM
COC[C@H]1CN(c2ncccn2)CCN1c1ncc(/C=C/c2ccc(-n3ccnc3)nc2)cn1 [Example 28, (R,E)-5-(2-(6-(1H-imidazol-1-yl)pyridin-3-yl)vinyl)-2-(2-(methoxymethyl)-4-(pyrimidin-2-yl)piperazin-1-yl)pyrimidine] | 1.3 nM | 3077 | 
COC[C@H]1CN(c2ncc(/C=C/c3ccc(-n4ccnc4)nc3)cn2)CCN1c1ncc(OCCF)cn1 [Example 35, (R,E)-5-(2-(6-(1H-imidazol-1-yl)pyridin-3-yl)vinyl)-2-(4-(5-(2-fluoroethoxy)pyrimidin-2-yl)-3-(methoxymethyl)piperazin-1-yl)pyrimidine] | 2 nM | 2000 | 
COC[C@H]1CN(c2ncc(/C=C/c3ccc(-n4ccnc4)nc3)cn2)CCN1c1ncc(OCC(O)CF)cn1 (stereo partly drawn) [Example 39, 1-((2-((R)-4-(5-((E)-2-(6-(1H-imidazol-1-yl)pyridin-3-yl)vinyl)pyrimidin-2-yl)-2-(methoxymethyl)piperazin-1-yl)pyrimidin-5-yl)oxy)-3-fluoropropan-2-ol] | 0.52 nM | 7692 | 
Cn1cc(-c2ncc(/C=C/c3cnc(N4CCN(c5ncncn5)[C@@H](COCCF)C4)nc3)cn2)cn1 [Example 43, (R,E)-2-(2-((2-fluoroethoxy)methyl)-4-(5-(2-(2-(1-methyl-1H-pyrazol-4-yl)pyrimidin-5-yl)vinyl)pyrimidin-2-yl)piperazin-1-yl)-1,3,5-triazine] |  |  | 1.22 nM
COC[C@H]1CN(c2ncc(C#Cc3ccc(-c4cnn(CCF)c4)nc3)cn2)CCN1c1ncncn1 [Example 47, (R)-2-(4-(5-((6-(1-(2-fluoroethyl)-1H-pyrazol-4-yl)pyridin-3-yl)ethynyl)pyrimidin-2-yl)-2-(methoxymethyl)piperazin-1-yl)-1,3,5-triazine] | 0.694 nM |  | 
FCCOCCOC[C@H]1CN(c2ncc(C#Cc3ccc(-c4cnco4)nc3)cn2)CCN1c1ncncn1 [Example 48, (R)-5-(5-((2-(3-((2-(2-fluoroethoxy)ethoxy)methyl)-4-(1,3,5-triazin-2-yl)piperazin-1-yl)pyrimidin-5-yl)ethynyl)pyridin-2-yl)oxazole] | 0.897 nM |  | 
Cn1ccc(-c2ncc(C#Cc3cnc(N4CCN(c5ncncn5)[C@@H](COCCF)C4)nc3)cn2)n1 [Example 49, (R)-2-(2-((2-fluoroethoxy)methyl)-4-(5-((2-(1-methyl-1H-pyrazol-3-yl)pyrimidin-5-yl)ethynyl)pyrimidin-2-yl)piperazin-1-yl)-1,3,5-triazine] | 2.91 nM |  | 
Cn1cc(-c2ncc(C#Cc3cnc(N4CCN(c5ccncn5)[C@@H](COCCF)C4)nc3)cn2)cn1 [Example 53, (R)-2-(3-((2-fluoroethoxy)methyl)-4-(pyrimidin-4-yl)piperazin-1-yl)-5-((2-(1-methyl-1H-pyrazol-4-yl)pyrimidin-5-yl)ethynyl)pyrimidine] | 0.32 nM |  | 
COC[C@H]1CN(c2ncc(C#Cc3cnc(-c4cnn(CCF)c4)nc3)cn2)CCN1c1ccncn1 [Example 54, (R)-2-(1-(2-fluoroethyl)-1H-pyrazol-4-yl)-5-((2-(3-(methoxymethyl)-4-(pyrimidin-4-yl)piperazin-1-yl)pyrimidin-5-yl)ethynyl)pyrimidine] | 0.91 nM |  | 
FCCOC[C@H]1CN(c2ncc(C#Cc3cnc(-c4cnco4)nc3)cn2)CCN1c1ncncn1 [Example 55, (R)-5-(5-((2-(3-((2-fluoroethoxy)methyl)-4-(1,3,5-triazin-2-yl)piperazin-1-yl)pyrimidin-5-yl)ethynyl)pyrimidin-2-yl)oxazole] | 6.67 nM |  | 
COC[C@H]1CN(c2ncc(C#Cc3cnc(-c4cnn(CF)c4)nc3)cn2)CCN1c1ncncn1 [Example 56, (R)-2-(4-(5-((2-(1-(fluoromethyl)-1H-pyrazol-4-yl)pyrimidin-5-yl)ethynyl)pyrimidin-2-yl)-2-(methoxymethyl)piperazin-1-yl)-1,3,5-triazine] | 0.64 nM |  | 
COC[C@H]1CN(c2ncc(C#Cc3ccc(-n4cnnc4)nc3)c(F)n2)CCN1c1ccncn1 [Example 58, (R)-5-((6-(4H-1,2,4-triazol-4-yl)pyridin-3-yl)ethynyl)-4-fluoro-2-(3-(methoxymethyl)-4-(pyrimidin-4-yl)piperazin-1-yl)pyrimidine] | 1.67 nM |  | 
Nc1cnn(-c2ncc(C#Cc3cnc(N4CCN(c5ncncn5)[C@@H](COCCF)C4)nc3)cn2)c1 [Example 73, (R)-1-(5-((2-(3-((2-fluoroethoxy)methyl)-4-(1,3,5-triazin-2-yl)piperazin-1-yl)pyrimidin-5-yl)ethynyl)pyrimidin-2-yl)-1H-pyrazol-4-amine] | 9.16 nM |  | 
COC[C@H]1CN(c2ncc(C#Cc3ccc(N4CCC(n5nccn5)CC4)nc3)cn2)CCN1c1ncccn1 [Example 76, (R)-5-((6-(4-(2H-1,2,3-triazol-2-yl)piperidin-1-yl)pyridin-3-yl)ethynyl)-2-(3-(methoxymethyl)-4-(pyrimidin-2-yl)piperazin-1-yl)pyrimidine] | 1.15 nM |  | 
FCCOCCOC[C@H]1CN(c2ncc(C#Cc3cnc(-c4cncnc4)nc3)cn2)CCN1c1ncncn1 [Example 79, (R)-5-((2-(3-((2-(2-fluoroethoxy)ethoxy)methyl)-4-(1,3,5-triazin-2-yl)piperazin-1-yl)pyrimidin-5-yl)ethynyl)-2,5′-bipyrimidine] | 5.42 nM |  | 
COC[C@H]1CN(c2ncc(C#Cc3ccc(-c4cc(F)ncn4)nc3)cn2)CCN1c1ncc(C#N)cn1 [Example 81, (R)-2-(4-(5-((6-(6-fluoropyrimidin-4-yl)pyridin-3-yl)ethynyl)pyrimidin-2-yl)-2-(methoxymethyl)piperazin-1-yl)pyrimidine-5-carbonitrile] | 1.18 nM |  | 
Cn1cc(-c2ncc(C#Cc3cnc(N4CCN(c5ncccn5)[C@@H](COCCOCCOCCOCCF)C4)nc3)cn2)cn1 [Example 83, (R)-2-(3-(13-fluoro-2,5,8,11-tetraoxatridecyl)-4-(pyrimidin-2-yl)piperazin-1-yl)-5-((2-(1-methyl-1H-pyrazol-4-yl)pyrimidin-5-yl)ethynyl)pyrimidine] | 2.39 nM |  | 
COC[C@H]1CN(c2ncncn2)CCN1c1ncc(C#Cc2cnc(-c3cnn(CCF)c3)nc2)cn1 [Example 84, (R)-2-(4-(5-((2-(1-(2-fluoroethyl)-1H-pyrazol-4-yl)pyrimidin-5-yl)ethynyl)pyrimidin-2-yl)-3-(methoxymethyl)piperazin-1-yl)-1,3,5-triazine] | 2.29 nM |  | 
COC[C@H]1CN(c2ncc(C#Cc3cnc(-c4cnn(CCF)c4)nc3)cn2)CCN1c1ccc(F)cn1 [Example 85, (R)-2-(1-(2-fluoroethyl)-1H-pyrazol-4-yl)-5-((2-(4-(5-fluoropyridin-2-yl)-3-(methoxymethyl)piperazin-1-yl)pyrimidin-5-yl)ethynyl)pyrimidine] | 1.05 nM |  | 
C[C@H]1CN(c2ccc(F)cn2)CCN1c1ncc(C#Cc2cnc(-n3cnnc3)nc2)cn1 [Example 86, (S)-5-((2-(4H-1,2,4-triazol-4-yl)pyrimidin-5-yl)ethynyl)-2-(4-(5-fluoropyridin-2-yl)-2-methylpiperazin-1-yl)pyrimidine] | 2.59 nM |  | 
COC[C@@H]1CN(c2ncncn2)CCN1c1ncc(C#Cc2cnc(-c3cnn(CCF)c3)nc2)cn1 [Example 87, (S)-2-(4-(5-((2-(1-(2-fluoroethyl)-1H-pyrazol-4-yl)pyrimidin-5-yl)ethynyl)pyrimidin-2-yl)-3-(methoxymethyl)piperazin-1-yl)-1,3,5-triazine] | 0.89 nM |  | 
